Values after ≈ are worked out from the molar mass of the structure shown.
Key:
Assay in all cases: ≥ marks a high value that may be exact or a test limit, other limits are often not marked, values filed in µg/mL are converted to µM
[1] = system: Serratia marcescens ATCC 4112
Candida albicans MDM8 = system: Candida albicans MDM8
Micrococcus luteus A270 = system: Micrococcus luteus A270
[2] = system: Enterobacter cloacae beta-12
[3] = system: Bacillus megaterium ATCC 10778
Escherichia coli SBS 363 = system: Escherichia coli SBS 363
[4] = system: Candida tropicalis IOC 4560
[5] = system: Staphylococcus epidermidis ATCC 12228
[6] = system: Staphylococcus aureus ATCC 29213
[7] = system: Salmonella enterica subsp. enterica serovar Typhimurium ATCC 14028
[8] = system: Lacticaseibacillus rhamnosus 1.0936
[9] = system: Staphylococcus aureus ATCC 43300
Escherichia coli K88 = system: Escherichia coli K88
Escherichia coli K99 = system: Escherichia coli K99
[10] = system: Lacticaseibacillus rhamnosus 1.0385
[11] = system: Lacticaseibacillus rhamnosus 1.0911
[12] = system: Escherichia coli ATCC 25922
[13] = system: Salmonella enterica subsp. enterica serovar Pullorum C79-13
[14] = system: Lactiplantibacillus plantarum 8014
[15] = system: Lacticaseibacillus rhamnosus 7469
Escherichia coli UB1005 = system: Escherichia coli UB1005
[16] = system: Staphylococcus aureus ATCC 25923
[17] = system: Salmonella enterica subsp. enterica serovar Typhimurium C77-31
[18] = system: Pseudomonas aeruginosa ATCC 27853
Escherichia coli AB94012 = system: Escherichia coli AB94012
[19] = system: Pseudomonas aeruginosa ATCC 9027
[20] = system: Staphylococcus aureus AB94004
[21] = system: Staphylococcus aureus AB6538
[22] = system: Staphylococcus aureus SH1000
[23] = system: Staphylococcus aureus ATCC BAA-1683
Escherichia coli = system: Escherichia coli
[24] = system: Candida albicans FRR 5580
[25] = system: Acinetobacter baumannii ATCC 19606
[26] = system: Staphylococcus aureus VRSA1
[27] = system: Staphylococcus aureus VRSA10
[28] = system: Pseudomonas aeruginosa FADDI-PA070
[29] = system: Klebsiella pneumoniae ATCC 700603
[30] = system: Staphylococcus aureus NRS 17
[31] = system: Staphylococcus aureus NRS 1
[32] = system: Streptococcus pneumoniae ATCC 700677
[33] = system: Klebsiella pneumoniae ATCC BAA-2146

Compound: CC(C)C[C@H](NC(=O)[C@H](C)NC(=O)CNC(=O)[C@H](CC(C)C)NC(=O)[C@@H](N)Cc1ccccc1)C(=O)N[C@@H](Cc1c[nH]c2ccccc12)C(=O)N[C@@H](CC(N)=O)C(=O)N[C@H](C(=O)N[C@@H](CCCCN)C(=O)N[C@@H](CCCCN)C(=O)N[C@@H](CO)C(=O)N[C@H](C(=O)N[C@@H](Cc1ccccc1)C(N)=O)C(C)C)C(C)C [FLGALWNVKKSVF]
- MIC [1]: ≥ 50 µM
- MIC (Candida albicans MDM8): ≥ 50 µM
- MIC (Micrococcus luteus A270): ≥ 50 µM
- MIC [2]: ≥ 50 µM
- MIC [3]: ≥ 50 µM
- MIC (Escherichia coli SBS 363): ≥ 50 µM
- MIC [4]: ≥ 50 µM
- MIC [5]: > 50 µM
- MIC [6]: > 50 µM

Compound: C[C@H](NC(=O)[C@H](C)NC(=O)[C@H](Cc1c[nH]c2ccccc12)NC(=O)[C@H](Cc1c[nH]c2ccccc12)NC(=O)[C@H](Cc1c[nH]c2ccccc12)NC(=O)[C@H](CCCN=C(N)N)NC(=O)[C@@H]1CSSC[C@H](N)C(=O)N[C@@H](C)C(=O)N[C@@H](CO)C(=O)N[C@@H](Cc2ccc(O)cc2)C(=O)N[C@@H](Cc2ccccc2)C(=O)N1)C(N)=O [CASYFCRWWWAA]
- MIC [7]: > 64 µM
- MIC [8]: ≥ 64 µM
- MIC [9]: > 64 µM
- MIC (Escherichia coli K88): ≥ 64 µM
- MIC (Escherichia coli K99): ≥ 64 µM
- MIC [10]: ≥ 64 µM
- MIC [11]: ≥ 64 µM
- MIC [12]: > 64 µM
- MIC [13]: ≥ 64 µM
- MIC [14]: ≥ 64 µM
- MIC [15]: ≥ 64 µM
- MIC (Escherichia coli UB1005): ≥ 64 µM
- MIC [16]: > 64 µM
- MIC [17]: ≥ 64 µM
- MIC [18]: > 64 µM
- MIC [6]: > 64 µM

Compound: CC[C@H](C)[C@H](NC(=O)[C@H](CO)NC(=O)[C@@H]1CCCN1C(=O)[C@H](CC(C)C)NC(=O)[C@@H](NC(=O)[C@H](CO)NC(=O)CNC(=O)[C@H](CC(C)C)NC(=O)[C@@H](NC(=O)[C@H](CO)NC(=O)CNC(=O)[C@H](CC(C)C)NC(=O)[C@H](CC(C)C)NC(=O)CNC(=O)[C@H](CC(C)C)NC(=O)[C@@H](N)Cc1ccccc1)C(C)C)C(C)C)C(=O)N[C@@H](Cc1ccccc1)C(=O)N[C@@H](CCCCN)C(N)=O [FLGLLGSVLGSVLPSIFK]
- MIC (Escherichia coli AB94012): ≥ 54.1 µM
- MIC [19]: > 54.1 µM
- MIC [20]: 6.77 µM (≈ 12.5 µg/mL)
- MIC [12]: > 54.1 µM
- MIC [21]: 6.77 µM (≈ 12.5 µg/mL)
- MIC [18]: > 54.1 µM

Compound: CC(C)C[C@H](NC(=O)[C@H](CC(C)C)NC(=O)[C@H](CCCCN)NC(=O)[C@H](CC(C)C)NC(=O)[C@H](CC(C)C)NC(=O)[C@H](CCCCN)NC(=O)[C@H](CCCCN)NC(=O)[C@H](CC(C)C)NC(=O)[C@H](CC(C)C)NC(=O)[C@H](CCCCN)NC(=O)[C@H](CC(C)C)NC(=O)[C@H](CC(C)C)NC(=O)[C@@H](N)CCCCN)C(=O)NCC(N)=O [KLLKLLKKLLKLLG]
- MIC [22]: ≥ 100 µM

Compound: CC(C)C[C@H](NC(=O)[C@H](CC(C)C)NC(=O)[C@H](CCCCN)NC(=O)[C@H](Cc1c[nH]c2ccccc12)NC(=O)[C@H](Cc1c[nH]c2ccccc12)NC(=O)[C@@H](N)CCCCN)C(=O)N[C@@H](CCCN=C(N)N)C(=O)N[C@@H](CCCCN)C(=O)N[C@@H](CCCCN)C(=O)N[C@@H](CCCN=C(N)N)C(N)=O [KWWKLLRKKR]
- MIC [23]: ≥ 43.3 µM
- MIC (Escherichia coli): 173 µM (≈ 250 µg/mL)
- MIC [16]: 21.7 µM (≈ 31.2 µg/mL)

Compound: CC(C)[C@H](NC(=O)[C@@H]1CCCN1C(=O)[C@H](Cc1ccccc1)NC(=O)[C@H](CCCCN)NC(=O)CNC(=O)[C@H](CCCCN)NC(=O)[C@H](Cc1c[nH]c2ccccc12)NC(=O)[C@H](Cc1c[nH]c2ccccc12)NC(=O)[C@H](CCCCN)NC(=O)[C@H](Cc1c[nH]c2ccccc12)NC(=O)[C@H](Cc1c[nH]c2ccccc12)NC(=O)[C@H](CCCN=C(N)N)NC(=O)[C@H](Cc1c[nH]c2ccccc12)NC(=O)[C@@H](NC(=O)[C@@H](NC(=O)[C@@H]1CCCN1C(=O)[C@@H](N)Cc1ccccc1)C(C)C)[C@@H](C)O)C(=O)N[C@H](C(=O)N[C@@H](Cc1c[nH]c2ccccc12)C(=O)N[C@@H](CCCN=C(N)N)C(=O)N[C@@H](Cc1c[nH]c2ccccc12)C(=O)N[C@@H](Cc1c[nH]c2ccccc12)C(=O)N[C@@H](CCCCN)C(=O)N[C@@H](Cc1c[nH]c2ccccc12)C(=O)N[C@@H](Cc1c[nH]c2ccccc12)C(=O)N[C@@H](CCCCN)C(=O)NCC(=O)O)[C@@H](C)O [FPVTWRWWKWWKGKFPVTWRWWKWWKG]
- MIC [19]: > 65.2 µM
- MIC [12]: 65.2 µM (≈ 250 µg/mL)
- MIC [24]: ≥ 32.6 µM
- MIC [16]: 65.2 µM (≈ 250 µg/mL)

Compound: CC[C@H](C)[C@H](NC(=O)[C@@H](N)CC(C)C)C(=O)NCC(=O)N[C@@H](CC(C)C)C(=O)N[C@H](C(=O)N[C@@H](CO)C(=O)N[C@@H](CCCCN)C(=O)NCC(=O)N[C@H](C(=O)N[C@H]1CSSC[C@@H](C(=O)N[C@@H](CCCCN)C(=O)N[C@@H](CCCCN)C(=O)N[C@H](C(=O)N[C@@H](CC(C)C)C(=O)N[C@@H](CCCCN)C(=O)N[C@@H](CCC(N)=O)C(N)=O)C(C)C)NC(=O)[C@H](C(C)C)NC(=O)[C@H]([C@@H](C)O)NC(=O)[C@H](CCCCN)NC(=O)[C@H](C(C)C)NC(=O)[C@H](CC(C)C)NC(=O)[C@H](C(C)C)NC1=O)[C@@H](C)O)C(C)C [LIGLVSKGTCVLVKTVCKKVLKQ]
- MIC [25]: > 9.6 µM
- MIC [26]: 9.6 µM (≈ 23.6 µg/mL)
- MIC [27]: 9.6 µM (≈ 23.6 µg/mL)
- MIC [9]: > 9.6 µM
- MIC [28]: 9.6 µM (≈ 23.6 µg/mL)
- MIC [29]: > 9.6 µM
- MIC [12]: > 9.6 µM
- MIC [30]: 9.6 µM (≈ 23.6 µg/mL)
- MIC [31]: 9.6 µM (≈ 23.6 µg/mL)
- MIC [32]: 9.6 µM (≈ 23.6 µg/mL)
- MIC [33]: 9.6 µM (≈ 23.6 µg/mL)
- MIC [18]: > 9.6 µM

From DBAASP
